Where “and” joins values, the source holds several entries; their conditions need not be identical. Equal entries are not always repeated.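 Five compound concentrations were applied to cells in 96-well plates for 48 hours; endpoints were derived by simple linear interpolation of the resulting dose-response curve. GI50 marks 50% less growth.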 Calls of active or inactive are those of the source. No stated cut-off is given here; in the data, active = GI50 up to about 1.1 µM and inactive = higher.
How the values were obtained:
Assay in all cases: inhibition of tumour cell growth, NCI panel, 48 h
[1] = test system: Malme-3M
[2] = test system: HT-29
[3] = test system: UACC-62
[4] = test system: SK-MEL-5
[5] = test system: A498
[6] = test system: SN12C
[7] = test system: SW-620
[8] = test system: LOX IMVI
[9] = test system: CCRF-CEM
[10] = test system: SK-MEL-28
[11] = test system: HCT-116
[12] = test system: NCI-H226
[13] = test system: SNB-75
[14] = test system: COLO 205
[15] = test system: NCI-H460
[16] = test system: DMS-273
[17] = test system: HCC 2998
[18] = test system: K562
[19] = test system: ACHN
[20] = test system: A549
[21] = test system: OVCAR-5
[22] = test system: HCT-15
[23] = test system: HL-60
[24] = test system: SK-MEL-2
[25] = test system: LXFL 529
[26] = test system: DMS-114
[27] = test system: M19-MEL
[28] = test system: KM12
[29] = test system: OVCAR-8
[30] = test system: SNB-78
[31] = test system: EKVX
[32] = test system: DLD-1
[33] = test system: NCI-H23
[34] = test system: SNB-19
[35] = test system: OVCAR-4
[36] = test system: Hs-578T
[37] = test system: CAKI-1
[38] = test system: OVCAR-3
[39] = test system: M14
[40] = test system: U-251
[41] = test system: MOLT-4
[42] = test system: RPMI-8226
[43] = test system: T47D
[44] = test system: HOP-62
[45] = test system: BT-549
[46] = test system: UACC-257
[47] = test system: NCI-H522
[48] = test system: 786-0
[49] = test system: SF-268
[50] = test system: SR
[51] = test system: SF-295
[52] = test system: RXF 393
[53] = test system: UO-31
[54] = test system: MDA-N
[55] = test system: HOP-92
[56] = test system: TK-10
[57] = test system: SF-539
[58] = test system: IGROV-1
[59] = test system: SK-OV-3
[60] = test system: MCF7
[61] = test system: PC-3
[62] = test system: NCI/ADR-RES
[63] = test system: MDA-MB-231
[64] = test system: MDA-MB-435
[65] = test system: DU-145

CC(=O)OCC1OC(n2c(=S)n(-c3ccccc3)c(=O)c3cc(Br)cc(Br)c32)C(OC(C)=O)C(OC(C)=O)C1OC(C)=O (stereo unspecified) was tested, and the GI50 [1] was > 100 µM (inactive), the GI50 [2] was > 100 µM (inactive) and the GI50 [3] was 59.2 µM (inactive) and 54.3 µM (inactive). The GI50 [4] was 91.6 µM (inactive), the GI50 [5] was > 100 µM (inactive) and 61.7 µM (inactive) and the GI50 [6] was > 100 µM (inactive) and 81.8 µM (inactive). The GI50 [7] was > 100 µM (inactive), the GI50 [8] was 60 µM (inactive) and the GI50 [9] was > 100 µM (inactive). For the same compound, the GI50 [10] was > 100 µM (inactive), the GI50 [11] was 65.2 µM (inactive) and the GI50 [12] was 61.7 µM (inactive). For the same compound, the GI50 [13] was 33.5 µM (inactive) and 22.6 µM (inactive), the GI50 [14] was > 100 µM (inactive) and the GI50 [15] was > 100 µM (inactive) and 81.8 µM (inactive). The GI50 [16] was > 100 µM (inactive) and 64.9 µM (inactive), the GI50 [17] was > 100 µM (inactive) and the GI50 [18] was 65.3 µM (inactive). The GI50 [19] was 51.8 µM (inactive) and 87.3 µM (inactive), the GI50 [20] was 90.8 µM (inactive) and 58.6 µM (inactive) and the GI50 [21] was > 100 µM (inactive). For the same compound, the GI50 [22] was 83.4 µM, the GI50 [23] was 86.7 µM (inactive) and the GI50 [24] was > 100 µM (inactive). For the same compound, the GI50 [25] was 72.1 µM (inactive) and 45.2 µM (inactive), the GI50 [26] was 35.2 µM (inactive) and 57.8 µM (inactive) and the GI50 [27] was 65.6 µM (inactive). For the same compound, the GI50 [28] was 83 µM (inactive) and 78.5 µM (inactive), the GI50 [29] was > 100 µM (inactive) and 92.9 µM (inactive) and the GI50 [30] was 99.3 µM (inactive) and 54.8 µM (inactive). For the same compound, the GI50 [31] was > 100 µM (inactive) and the GI50 [32] was > 100 µM (inactive).

COc1ccc2nc(NC(=O)/C(C#N)=C/c3ccccc3)sc2c1 was tested, and the GI50 [1] was > 49 µM (inactive), the GI50 [33] was > 67.3 µM (inactive) and the GI50 [2] was 46.7 µM (inactive). The GI50 [34] was > 100 µM (inactive), the GI50 [3] was 23.1 µM (inactive) and the GI50 [4] was 20.8 µM (inactive). For the same compound, the GI50 [35] was 37.6 µM (inactive), the GI50 [5] was 37.3 µM (inactive) and the GI50 [36] was > 48.5 µM (inactive). For the same compound, the GI50 [6] was 40.6 µM (inactive), the GI50 [37] was 31 µM (inactive) and the GI50 [38] was 18.4 µM (inactive). The GI50 [7] was 46.9 µM (inactive), the GI50 [39] was > 54.1 µM (inactive) and the GI50 [40] was 50.1 µM (inactive). For the same compound, the GI50 [8] was 39.4 µM (inactive), the GI50 [41] was 27.5 µM (inactive) and the GI50 [9] was 14.1 µM (inactive). For the same compound, the GI50 [10] was 66.7 µM (inactive), the GI50 [42] was 23.4 µM (inactive) and the GI50 [11] was 24.7 µM (inactive). For the same compound, the GI50 [12] was > 58.2 µM (inactive), the GI50 [43] was 30.1 µM (inactive) and the GI50 [44] was > 64.1 µM (inactive). For the same compound, the GI50 [13] was > 45.7 µM (inactive), the GI50 [45] was 52.2 µM (inactive) and the GI50 [14] was 48.3 µM (inactive). For the same compound, the GI50 [15] was 38 µM (inactive), the GI50 [46] was 27 µM (inactive) and the GI50 [47] was 15.2 µM (inactive). For the same compound, the GI50 [48] was 44.9 µM (inactive), the GI50 [49] was > 56.5 µM (inactive) and the GI50 [17] was 44.3 µM (inactive). For the same compound, the GI50 [50] was 4.43 µM (inactive), the GI50 [51] was 55.6 µM (inactive) and the GI50 [18] was 23.5 µM (inactive). The GI50 [52] was > 61.4 µM (inactive), the GI50 [53] was 36.8 µM (inactive) and the GI50 [19] was 35.6 µM (inactive). For the same compound, the GI50 [20] was 59.4 µM (inactive), the GI50 [54] was 34.8 µM (inactive) and the GI50 [21] was > 100 µM (inactive). For the same compound, the GI50 [22] was 24.7 µM, the GI50 [55] was 32.7 µM (inactive) and the GI50 [23] was 9.35 µM (inactive). The GI50 [24] was > 100 µM (inactive), the GI50 [56] was 26.4 µM (inactive) and the GI50 [57] was 27.7 µM (inactive). For the same compound, the GI50 [58] was 29.4 µM (inactive), the GI50 [59] was > 70.6 µM (inactive) and the GI50 [60] was 36.2 µM (inactive). The GI50 [28] was > 41.7 µM (inactive), the GI50 [61] was > 61 µM (inactive) and the GI50 [29] was > 51.6 µM (inactive). The GI50 [62] was > 39 µM (inactive), the GI50 [63] was > 79.8 µM (inactive) and the GI50 [64] was 24.5 µM (inactive). The GI50 [65] was > 52.6 µM (inactive) and the GI50 [31] was 38.4 µM (inactive).

From ChEMBL document CHEMBL1201862, “PubChem BioAssay data set” (2004)
